“And” between values parts separate entries of the source, which are not always exact repeats. Equal entries are not always repeated.

T1 sequence (O75417 102-554 limits assumed): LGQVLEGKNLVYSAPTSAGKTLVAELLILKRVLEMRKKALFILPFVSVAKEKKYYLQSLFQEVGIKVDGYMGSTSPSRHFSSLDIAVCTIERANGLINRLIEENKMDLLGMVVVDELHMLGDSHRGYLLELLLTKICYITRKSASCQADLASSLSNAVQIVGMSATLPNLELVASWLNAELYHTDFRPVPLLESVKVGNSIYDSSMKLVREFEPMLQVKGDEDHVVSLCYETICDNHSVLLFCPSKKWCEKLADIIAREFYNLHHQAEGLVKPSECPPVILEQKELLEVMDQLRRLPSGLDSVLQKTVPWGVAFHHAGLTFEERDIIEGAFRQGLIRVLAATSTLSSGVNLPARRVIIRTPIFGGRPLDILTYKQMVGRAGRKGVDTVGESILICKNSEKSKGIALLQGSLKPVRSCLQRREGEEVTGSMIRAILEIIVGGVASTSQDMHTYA

The first test has as its target T1, helicase domain of the Pol θ protein (Homo sapiens, UniProt O75417).
T1 construct: The helicase domain of the Pol θ protein was purified from insect protein expression system; made in house; host or cells: insect protein expression system
The test can be described thus: Biochemical Activity Assay (ADP Glo Assay) of Pol θ inhibitor, ATPase activity. The settings on record: ADP-Glo assay, ATPase activity of Pol θ helicase domain, ssDNA substrate; read-out: Biochemical assay IC50. (In general: In ADP-Glo the light output rises with the ADP produced.)
`COc1ccccc1-c1cnncc1C(=O)Nc1nc2ccc(-c3ccn[nH]3)nc2s1` [Comparative Example 2, reference compound]: the IC50 came out at 307 nM.
Take `COc1cnc(Cl)cc1-c1cc(C)ncc1C(=O)Nc1nc2c(C(=O)O)cc(-c3c(C)cnn3C)cc2s1` [Example 164]: the IC50 came out at 8.32 nM.
Turning to `COc1cnc(C(F)F)cc1-c1cc(C)ncc1C(=O)Nc1nc2cnc(-c3c(F)cnn3C)cc2s1` [Example 173], the IC50 was 2.93 nM.
Same read-out and setting: for `COc1cnc(C(F)F)cc1-c1cc(C)ncc1C(=O)Nc1nc2cnc(-c3c(C)cnn3C)cc2s1` [Example 174] the value was 2.93 nM; for `COc1cnc(Cl)cc1-c1cc(C)ncc1C(=O)Nc1nc2cnc(-c3ncon3)cc2s1` [Example 181, N-(6-(1,2,4-oxadiazol-3-yl)thiazolo[4,5-c]pyridin-2-yl)-2'-chloro-5'-methoxy-6-methyl-[4,4'-bipyridine]-3-carboxamide], 6.71 nM.

Staying with this test, now noted: Biochemical assay IC50 (nM).
On to `COc1cnc(Cl)cc1-c1cc(C)ncc1C(=O)Nc1nc2ccc(C3=CCC(O)CC3)nc2s1` (centres unmarked) [Example 1, 2'-chloro-N-(5-(4-hydroxycyclohex-1-en-1-yl)thiazol[5,4-b]pyridin-2-yl)-5'-methoxy-6-methyl-[4,4'-bipyridine]-3-carboxamide], for which the 50% inhibitory concentration (IC50) was < 50 nM and 7.07 nM.
With `COc1cnc(Cl)c(F)c1-c1cc(C)ncc1C(=O)Nc1nc2cccnc2s1` [Example 38, 2'-chloro-3'-fluoro-5'-methoxy-6-methyl-N-(thiazol[5,4-b]pyridin-2-yl)-[4,4'-bipyridine]-3-carboxamide], the IC50 is < 50 nM and 17.3 nM.
Still for that read-out and setting: for `COc1cnc(Cl)c(F)c1-c1cc(C)ncc1C(=O)Nc1nc2c(s1)CN(CC1CCOC1)CC2` (centres unmarked) [Example 40, 2'-chloro-3'-fluoro-5'-methoxy-6-methyl-N-(5-((tetrahydrofuran-3-yl)methyl)-4,5,6,7-hexahydrothiazolo[5,4-c]pyridin-2-yl)-[4,4'-bipyridine]-3-carboxamide] the value was 50 to 200 nM and 14.9 nM; for `COc1cnc(Cl)cc1-c1cc(C)ncc1C(=O)Nc1nc2ccc(N3CCN(C)CC3)nc2s1` [Example 43, 2'-chloro-5'-methoxy-6-methyl-N-(5-(4-methylpiperazin-1-yl)thiazol[5,4-b]pyridin-2-yl)-[4,4'-bipyridine]-3-carboxamide], 50 to 200 nM and 51.9 nM.
Still for that read-out and setting: for `COc1cnc(Cl)cc1-c1cc(C)ncc1C(=O)Nc1nc2ccc(-c3ccc(Cl)cn3)nc2s1` [Example 44, 2'-chloro-N-(5-(5-chloropyridin-2-yl)thiazol[5,4-b]pyridin-2-yl)-5'-methoxy-6-methyl-[4, 4'-bipyridine]-3-carboxamide] the value was < 50 nM and 5.81 nM; for `COc1cnc(Cl)cc1-c1cc(C)ncc1C(=O)Nc1nc2c(s1)CN(c1ccc(Cl)cn1)CC2` [Example 92, 2'-chloro-N-(5-(5-chloropyridin-2-yl)-4,5,6,7-tetrahydrothiazol[5,4-c]pyridin-2-)-5'-methoxy-6-methyl-[4,4'-bipyridine]-3-carboxamide], 50 to 200 nM and 59.9 nM.
Same read-out and setting: the value for `COc1cnc(Cl)cc1-c1cc(C)ncc1C(=O)Nc1nc2cnc(C3=CC[C@H](O)CC3)cc2s1` [Example 114, (R)-2'-chloro-N-(6-(4-hydroxycyclohex-1-en-1-yl)thiazolo[4,5-c]pyridin-2-yl)-5'-methoxy-6-methyl-[4.4'-bipyridine]-3-carboxamide] was < 50 nM and 3.98 nM.

Staying with this test, now noted: Biochemical assay IC50 (nM), ADP-Glo assay, ATPase activity of Pol θ helicase domain, ssDNA substrate.
Take `[2H]C1(O)CCN(c2ccc3nc(NC(=O)c4cnc(C)cc4-c4cc(Cl)ncc4OC)sc3n2)CC1` [Example 112, 2'-chloro-N-(5-(4-hydroxypiperidin-1-yl-4-deuterium)thiazol[5,4-b]pyridin-2-yl)-5'-met hoxy-6-methyl-[4,4'-bipyridine]-3-carboxamide]: 10 nM corresponded to half-maximal inhibition (IC50).

Still in this test, the particulars now being: read-out: Biochemical assay IC50.
As to `COc1cnc(C(F)F)cc1-c1cc(N2CCN(C)C3(CC3)C2=O)ncc1C(=O)Nc1nc2cnc(-c3c(C)nnn3C)cc2s1` [Example 197], the concentration for half-maximal inhibition (IC50) was 8.57 nM.

For orientation: IC50 means the concentration that inhibits the measured activity by half.

These data come from patent EP4585599A1, “NITROGEN-CONTAINING FUSED RING COMPOUND, INTERMEDIATE THEREOF, PREPARATION METHOD THEREFOR AND USE THEREOF” (Hangzhou Synrx Therapeutics Biomedical Technology Co., Ltd., priority 2022, dated 2024).
